Here are results for 21 compounds from patent EP4471049A1 (Zealand Pharma A/S, priority 2023, dated 2024).

*1 amine or outer side, *2 acyl side, *3 side chain or, on linkers, in order; H or OH if unused. Where a SMILES comes first, the peptide text is derived from it. Bridges are numbered along the chain shown (N, C = ends). [ ]: non-standard residue; d: D form. 2Nal = N[C@@H](Cc1ccc2ccccc2c1)C(=O)O; AEF = NCCOc1ccc(C[C@H](N)C(=O)O)cc1; X1 = O=C(Cc1ccc(CN[*:1])cc1)[*:2]; 3Pal = N[C@@H](Cc1cccnc1)C(=O)O; αMeL = CC(C)C[C@](C)(N)C(=O)O; Dab = NCC[C@H](N)C(=O)O

The test system of series [1] is porcine pepsin (P7125, Sigma Aldrich). Kind of series: SGF: sodium chloride, HCl, pH 1.2, with porcine pepsin (3.2 g/L). To be noted: 37 °C, up to 4 hours.
A further series addresses T1, human IL-23R (Homo sapiens, UniProt Q5VWK5).
T1 sequence (Q5VWK5 22-629): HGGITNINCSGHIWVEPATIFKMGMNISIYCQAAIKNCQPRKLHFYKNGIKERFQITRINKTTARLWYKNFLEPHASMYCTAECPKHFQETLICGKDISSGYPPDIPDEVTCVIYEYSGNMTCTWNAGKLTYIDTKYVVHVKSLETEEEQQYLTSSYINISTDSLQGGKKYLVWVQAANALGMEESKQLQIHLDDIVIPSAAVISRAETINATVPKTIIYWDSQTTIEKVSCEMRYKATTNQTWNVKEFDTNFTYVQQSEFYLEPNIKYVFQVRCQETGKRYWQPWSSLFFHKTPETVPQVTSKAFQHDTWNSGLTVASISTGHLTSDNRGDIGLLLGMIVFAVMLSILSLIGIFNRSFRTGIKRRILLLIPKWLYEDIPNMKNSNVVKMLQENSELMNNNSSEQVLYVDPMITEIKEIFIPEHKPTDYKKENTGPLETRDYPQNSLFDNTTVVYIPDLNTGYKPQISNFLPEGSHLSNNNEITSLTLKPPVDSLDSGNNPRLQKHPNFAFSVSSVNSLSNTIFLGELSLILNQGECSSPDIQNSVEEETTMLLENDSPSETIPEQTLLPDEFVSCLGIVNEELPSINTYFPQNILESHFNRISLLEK
Kind of series: biochemical. In a few lines: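 BRET displacement of a TAMRA-labelled reference compound from N-terminal Nanoluc-IL-23R fusion protein in membranes from stably transfected HEK293 cells. Incubation 2 h at room temperature, then Nanoluc substrate was added and the TAMRA/Nanoluc ratio read. IC50 and maximal displacement came from 4-parameter logistic fits.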

Series [2] is described as follows: Peptide stability in simulated intestinal fluid (SIF). It counts as in vitro ADME. The note with it: pig, simulated intestinal fluid (SIF) with porcine pancreatin, 37 °C, pH 6.8, porcine pancreatin 10 g/L, 10 µM; for remaining at 4 h, 10 µM: read-out: SIF (% remaining 4 h). The method, boiled down:
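Peptides were incubated at 37 °C with gentle shaking in pH 6.8 potassium phosphate SIF containing porcine pancreatin (10 g/L). Supernatants were analysed by LC-HRMS. Percent remaining at each timepoint, including 4 h, was calculated relative to time zero from absolute peak areas.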

Series [3] can be described thus: Peptide stability in simulated gastric fluid (SGF). It is filed as in vitro ADME. The note with it: pig, simulated gastric fluid (SGF) with porcine pepsin, 37 °C, pH 1.2, porcine pepsin 3.2 g/L. Here is the method: SGF was prepared by dissolving sodium chloride (0.2 g) in 50 mL of water. A volume of 0.7 mL of 10 M HCl was added to adjust the pH of the solution to 1.2 and the volume made up to 100 mL with water. […] SIF was prepared by dissolving monobasic potassium phosphate (0.68 g) in 50 mL of water and adjusting the pH to 6.8 with 1 M NaOH. The volume was subsequently made up to 100 mL with water. 200 mg porcine pancreatin (P1625, Sigma Aldrich) was gently dissolved into 20 mL preheated (37 °C) solution (10 g/L) immediately prior to the incubation.
The incubation was performed at 37 °C with gentle shaking. […] After the last timepoint, the sampling plate was mixed for 10 min on a shaking table and centrifuged 10 min at 2200 g. 70 µL resulting supernatant was diluted with 150 µL water, mixed and centrifugated before analysis by liquid chromatography high resolution mass spectrometry. […] Percent remaining at each timepoint was calculated relative to timepoint zero based on absolute peak areas.
Compounds with a SGF stability (after 4 h) above 70% are considered highly SGF stable. […] Table 3-4: SGF data

“[4-Aminomethyl-phenylacetyl](1c)*SE(2c)WQ[Dab](2c)[Y(2-aminoethoxy)][2-Nal][2-Me-Leu]E(1c)[hSer][3-(3-Pyridyl)-Ala]” registered a not cleaved in series [1] of 103% remaining after 4 h.
Still for that read-out and setting: as for “[4-Aminomethyl-phenylacetyl](1c)*SE(2c)WQ[Dab](2c)[Y(2-aminoethoxy)][2-Nal][2-Me-Leu]E(1c)[{d}S][3-(3-Pyridyl)-Ala]”, the figure is 91% remaining after 4 h; as for “[4-Aminomethyl-phenylacetyl](1c)*SE(2c)WQ[Dab](2c)[Y(2-aminoethoxy)][2-Nal][2-Me-Leu]E(1c)Q[3-(3-Pyridyl)-Ala]”, 93% remaining after 4 h.
Take “[4-Aminomethyl-phenylacetyl](1c)*FE(2c)WQ[Dab](2c)[Y(2-aminoethoxy)][2-Nal][2-Me-Leu]E(1c)[Dab][3-(3-Pyridyl)-Ala]”: the not cleaved in series [1] is 101% remaining after 4 h.
In series [1], “[4-Aminomethyl-phenylacetyl](1c)*SE(2c)WQ[Dab](2c)[Y(2-aminoethoxy)][2-Nal][2-Me-Leu]E(1c)[Dab]H[3-(3-Pyridyl)-Ala]-[NH2]” registered a not cleaved of 93% remaining after 4 h.
H-GC(1a)TC(2a)WEC(2a)WWLC(1a)S-[NH2] came in with a not cleaved in series [1] of 94% remaining after 4 h.
Still for that read-out and setting: as for “[4-Aminomethyl-phenylacetyl](1c)*SE(2c)W[K(Ac)][Dab](2c)[Y(2-aminoethoxy)][2-Nal][2-Me-Leu]E(1c)[Dab][3-(3-Pyridyl)-Ala]”, the figure is 90% remaining after 4 h; as for “[4-Aminomethyl-phenylacetyl](1c)*SE(2c)W[Q(pyrrolidin)][Dab](2c)[Y(2-aminoethoxy)][2-Nal][2-Me-Leu]E(1c)[Dab][3-(3-Pyridyl)-Ala]”, 96% remaining after 4 h; as for “[4-Aminomethyl-phenylacetyl](1c)*SE(2c)WQ[Dab](2c)[Y(2-aminoethoxy)][2-Nal][2-Me-Leu]E(1c)H[3-(3-Pyridyl)-Ala]”, 95% remaining after 4 h.
On the same count and under the same terms, in the case of “[4-Aminomethyl-phenylacetyl](1c)*SE(2c)WQ[Dab](2c)[Y(2-aminoethoxy)][2-Nal][2-Me-Leu]E(1c)[Dab][N-Me-3-(3-Pyridyl)-Ala]-[NH2]” it was 103% remaining after 4 h; in that of “[4-Aminomethyl-phenylacetyl](1c)*SE(2c)WQ[Dab](2c)[Y(2-aminoethoxy)][2-Nal][2-Me-Leu]E(1c)[Ser(OMe)][3-(3-Pyridyl)-Ala]”, 102% remaining after 4 h.
Broadly, the IC50 is the concentration that inhibits the measured activity by half. `CNC(=O)[C@H](Cc1cccnc1)NC(=O)[C@@H](CO)NC(=O)[C@@H]1CCC(=O)NCc2ccc(cc2)CC(=O)N[C@@H](CO)C(=O)N[C@H]2CCC(=O)NCC[C@H](NC(=O)[C@H](CCC(N)=O)NC(=O)[C@H](Cc3c[nH]c4ccccc34)NC2=O)C(=O)N[C@@H](Cc2ccc(OCCN)cc2)C(=O)N[C@@H](Cc2ccc3ccccc3c2)C(=O)N[C@@](C)(CC(C)C)C(=O)N1` [Compound 38, [4-Aminomethyl-phenylacetyl](1c)*SE(2c)WQ[Dab](2c)[Y(2-aminoethoxy)][2-Nal][2-Me-Leu]E(1c)[{d}S][3-(3-Pyridyl)-Ala]-[NHMe]]: on human IL-23R, the “% displacement (hIL-23R binding)” value came out at 102% and the IC50 was found to be 0.066 nM. Besides, in series [2], the share remaining at 4 h, 10 µM is 65%. In addition, the share remaining at 4 h, 10 µM in series [3] was 91%.
“[4-Aminomethyl-phenylacetyl](1c)*SE(2c)WQ[Dab](2c)[Y(2-aminoethoxy)][2-Nal][2-Me-Leu]E(1c)S[3-(3-Pyridyl)-Ala]” showed a not cleaved in series [1] of 99% remaining after 4 h.
In the case of `CNC(=O)[C@H](Cc1cccnc1)NC(=O)C1(NC(=O)[C@@H]2CCC(=O)NCc3ccc(cc3)CC(=O)N[C@@H](CO)C(=O)N[C@H]3CCC(=O)NCC[C@H](NC(=O)[C@H](CCC(N)=O)NC(=O)[C@H](Cc4c[nH]c5ccccc45)NC3=O)C(=O)N[C@@H](Cc3ccc(OCCN)cc3)C(=O)N[C@@H](Cc3ccc4ccccc4c3)C(=O)N[C@@](C)(CC(C)C)C(=O)N2)CCOCC1` [Compound 35, [4-Aminomethyl-phenylacetyl](1c)*SE(2c)WQ[Dab](2c)[Y(2-aminoethoxy)][2-Nal][2-Me-Leu]E(1c)[THP][3-(3-Pyridyl)-Ala]-[NHMe]], the “% displacement (hIL-23R binding)” value on human IL-23R is recorded as 101%. For the same compound, the fraction remaining at 1 h, 10 µM in series [2] is 110%. For the same compound, in series [3], the amount remaining at 4 h, 10 µM was 94%.
On to “[4-Aminomethyl-phenylacetyl](1c)*SE(2c)WQ[Dab](2c)[Y(2-aminoethoxy)][2-Nal][2-Me-Leu]E(1c)[Nle][3-(3-Pyridyl)-Ala]”, for which the not cleaved in series [1] was found to be 90% remaining after 4 h.
Still for that read-out and setting: as for “[4-Aminomethyl-phenylacetyl](1c)*SE(2c)WQ[Dab](2c)[Y(2-aminoethoxy)][2-Nal][2-Me-Leu]E(1c)[2-Me-Ser][3-(3-Pyridyl)-Ala]”, the figure is 96% remaining after 4 h.
As for H-EC(4a)WLC(5a)YYRNC(5a)NC(4a)M-[NH2], in series [1], the not cleaved is given as 99% remaining after 4 h.
With “[4-Aminomethyl-phenylacetyl](1c)*SE(2c)WQ[Dab](2c)[Y(2-aminoethoxy)][2-Nal][2-Me-Leu]E(1c)[Dab]-[NH-(4-(pyridin-3-yl)butanyl)]”, the not cleaved in series [1] stood at 108% remaining after 4 h.
As to `CNC(=O)[C@H](Cc1cccnc1)NC(=O)[C@H](CCN)NC(=O)[C@@H]1CCC(=O)NCc2ccc(cc2)CC(=O)N[C@@H](CO)C(=O)N[C@H]2CCC(=O)NCC[C@H](NC(=O)[C@H](CCNC(C)=O)NC(=O)[C@H](Cc3c[nH]c4ccccc34)NC2=O)C(=O)N[C@@H](Cc2ccc(OCCN)cc2)C(=O)N[C@@H](Cc2ccc3ccccc3c2)C(=O)N[C@@](C)(CC(C)C)C(=O)N1` [Compound 25, [4-Aminomethyl-phenylacetyl](1c)*SE(2c)W[Dab(Ac)][Dab](2c)[Y(2-aminoethoxy)][2-Nal][2-Me-Leu]E(1c)[Dab][3-(3-Pyridyl)-Ala]-[NHMe]] ([X1]SEW[Dab](Ac)[Dab][AEF][2Nal][αMeL]E[Dab][3Pal]-NHMe; lactam 3-6, N-10), the Emax on human IL-23R (read-out: % displacement (hIL-23R binding)) stood at 93%. In addition, the fraction remaining at 4 h, 10 µM is 91% in series [2] and 88% in series [3].
In the case of `CNC(=O)[C@H](Cc1cccnc1)NC(=O)[C@H](CCO)NC(=O)[C@@H]1CCC(=O)NCc2ccc(cc2)CC(=O)N[C@@H](CO)C(=O)N[C@H]2CCC(=O)NCC[C@H](NC(=O)[C@H](CCC(N)=O)NC(=O)[C@H](Cc3c[nH]c4ccccc34)NC2=O)C(=O)N[C@@H](Cc2ccc(OCCN)cc2)C(=O)N[C@@H](Cc2ccc3ccccc3c2)C(=O)N[C@@](C)(CC(C)C)C(=O)N1` [Compound 36, [4-Aminomethyl-phenylacetyl](1c)*SE(2c)WQ[Dab](2c)[Y(2-aminoethoxy)][2-Nal][2-Me-Leu]E(1c)[hSer][3-(3-Pyridyl)-Ala]-[NHMe]], at human IL-23R, the “% displacement (hIL-23R binding)” value was 94% and half-maximal inhibition (IC50) required 0.014 nM. For the same compound, the share remaining at 4 h, 10 µM in series [2] is 55%. Also, the share remaining at 1 h, 10 µM in series [3] was 96%.
On to `CNC(=O)[C@H](Cc1cccnc1)NC(=O)[C@H](COC)NC(=O)[C@@H]1CCC(=O)NCc2ccc(cc2)CC(=O)N[C@@H](CO)C(=O)N[C@H]2CCC(=O)NCC[C@H](NC(=O)[C@H](CCC(N)=O)NC(=O)[C@H](Cc3c[nH]c4ccccc34)NC2=O)C(=O)N[C@@H](Cc2ccc(OCCN)cc2)C(=O)N[C@@H](Cc2ccc3ccccc3c2)C(=O)N[C@@](C)(CC(C)C)C(=O)N1` [Compound 37, [4-Aminomethyl-phenylacetyl](1c)*SE(2c)WQ[Dab](2c)[Y(2-aminoethoxy)][2-Nal][2-Me-Leu]E(1 c)[Ser(OMe)][3-(3-Pyridyl)-Ala]-[NHMe]], for which, on human IL-23R, the “% displacement (hIL-23R binding)” value is 95% and the 50% inhibitory concentration (IC50) is 0.013 nM. For the same compound, in series [2], the fraction remaining at 1 h, 10 µM is 78% and the fraction remaining at 4 h, 10 µM was 69%. In series [3], the amount remaining at 1 h, 10 µM is 97%.
